From US20130252816A1, “HERBICIDAL COMPOSITION AND USE THEREOF” (Syngenta Crop Protection LLC, priority 2010, published 2013)

Legend:
[1] = system: Dandelions and a mixture of grasses; assay: Example 3: overall statement, Dandelions and mixture of grasses; format: in vivo; details: absence of glyphosate, 5% w/v
Protocol: (§1) The effects of different branched chain alcohol ethoxylates in admixture with glyphosate on both Dandelions and a mixture of grasses were investigated.
(§2) Dandelion samples and a mixture of grasses obtained from a meadow environment were planted into square 20 cm pots and kept and grown on in glasshouse for at least 2 weeks (18 to 20° C., 60% relative humidity).
(§3) Application of branched chain alcohol ethoxylate was carried out using a tracksprayer, spraying at a rate of 600 l/ha.
(§4) Visual assessment of the estimated percentage damage to the plant was carried out 1, 6, 13, and 20 days from application.
(§5) Damage was assessed as wilting, desiccation or any other kind of visual injury in comparison to the untreated control (water only).

[2] = system: broadleaf weeds and grasses; assay: Example 1: overall statement on adjuvants alone; format: in vivo; details: 1 and 6 days after treatment, adjuvant alone
Protocol: (§6) The effect of different adjuvants (see Table 1 below) on the growth of broadleaf weed and grass species was investigated and compared to untreated (water only) control weeds.
(§7) Plates, each with 48 pots measuring 2.7 cm diameter and 5 cm deep, were filled with TKS1 growing media (Floragard, Germany). Seeds of Taraxacum officinale, Stellaria media or Poa annua were sown on the surface (10 to 20 per pot). Plants were grown in glasshouse at a temperature of 18 to 20° C. and at 60% relative humidity.
(§8) Plants were treated 15 (Stellaria, Poa) and 34 (Taraxacum) days after sowing with 60 μl of a 1.25, 2.5, 5 and 10% (w/v) solution of adjuvant using a hand airbrush.
(§9) Visual assessment of the percentage damage to the plant was carried out 1 day and 6 days from application.
as §5

Grass mix = assay: Example 3: branched chain alcohol ethoxylates in admixture with glyphosate, visual % damage, 600 l/ha; format: in vivo, mixture of grasses; details: adjuvant where present 5% w/v
Protocol: as §1, §2, §3, §4, §5

Dandelion = assay: as above; format: in vivo; details: adjuvant where present 5% w/v
Protocol: as §1, §2, §3, §4, §5

[3] = system: broadleaf weeds and grasses; assay: Example 4: overall statement, broadleaf weeds and grasses; format: in vivo; details: 2.5% w/v in admixture with glyphosate (Weedbuster)
Source text: The effect on broadleaf weeds and grasses of different concentrations of Genapol™ X060 (iso-tridecyl alcohol polyglycol ether with 6 moles of ethoxylation) in admixture with glyphosate was investigated.
Troughs (measuring 55 cm by 9 cm by 8.5 cm) were filled with local field soil. Seeds of Taraxacum officinale, Urtica dioica, Trifolium repens and Poa annua were sown 41 days before application of test samples, and seeds of Stellaria media, Veronica persica, Agropyron repens and Lolium multiflorum were sown 24 days before application of test samples. Plants were grown in the glasshouse at 18 to 20° C. and 60% relative humidity. One week before application of test samples, troughs were placed outside (but covered).
Application of test samples was carried out using a tracksprayer, spraying at a rate of 300 l/ha. Treated plants were kept outside and visual assessment of the percentage damage to the plants was carried out at 1, 7, 14, and 21 days after application.
as §5

Stellaria media [4] = assay: Example 2: alcohol ethoxylate adjuvants without glyphosate, visual % damage, tracksprayer 300 l/ha; format: in vivo
Source text: (§10) The effect of different types of alcohol ethoxylate (branched—Genapol X-series, and unbranched—Genapol O-series, differing degrees of ethoxylation, see Table 3 below for more details), on unwanted vegetation (broadleaf weed and grass species), in the absence of glyphosate, was investigated and compared to untreated (water only) control weeds.
(§11) Troughs (measuring 16 cm by 13 cm by 5 cm) were filled with local field soil. Seeds of Veronica persica, Stellaria media, Trifolium repens and Poa annua were sown 24 days before application of test samples. Plants were grown in the glasshouse at 18 to 20° C. and 60% relative humidity. Application of alcohol ethoxylate test samples was carried out using a tracksprayer, spraying at a rate of 300 l/ha. Plants were kept in glasshouse and visual assessment of the estimated percentage damage to the plant was carried out 1, 7, and 14 days from application.
as §5

Poa annua [5] = assay: as above; format: in vivo
Source text: as §10, §11, §5

Veronica persica = assay: as above; format: in vivo
Source text: as §10, §11, §5

Trifolium repens = assay: as above; format: in vivo
Source text: as §10, §11, §5

[6] = system: broadleaf weed and grass species; assay: Example 2: overall statement on alcohol ethoxylates without glyphosate; format: in vivo; details: absence of glyphosate
Source text: as §10, §11, §5

Stellaria media [7] = assay: Example 1: adjuvants alone, visual % damage, pots in glasshouse; format: in vivo
Protocol: as §6, §7, §8, §9, §5

Taraxacum officinale = assay: as above; format: in vivo
Protocol: as §6, §7, §8, §9, §5

Poa annua [8] = assay: as above; format: in vivo
Protocol: as §6, §7, §8, §9, §5

## Iso-tridecyl alcohol polyglycol ether with 6 moles of ethoxylation [GenapolX060]
[1]
  course of damage over time (recovery): the level of damage decreases from day 13 onwards
[2]
  visual symptoms of phytotoxicity: comparatively high level of visual symptoms of phytoxicity
Grass mix
  % Damage 1 daa Grass mix: 20%
  % Damage 6 daa Grass mix: 50%
  % Damage 13 daa Grass mix: 40%
  % Damage 20 daa Grass mix: 40%
Dandelion
  % Damage 1 daa Dandelion: 40%
  % Damage 6 daa Dandelion: 50%
  % Damage 13 daa Dandelion: 30%
  % Damage 20 daa Dandelion: 20%
[3]
  rapid symptomology versus Roundup and Weedbuster: more rapid symptomology against all weeds in comparison to Roundup
Stellaria media [4]; adjuvant 1% w/v
  mean % damage 1 daa Stellaria media: 5%
  mean % damage 7 daa Stellaria media: 5%
  mean % damage 14 daa Stellaria media: 0%
Stellaria media [4]; adjuvant 1.5% w/v
  mean % damage 1 daa Stellaria media: 10%
  mean % damage 7 daa Stellaria media: 10%
  mean % damage 14 daa Stellaria media: 0%
Stellaria media [4]; adjuvant 2% w/v
  mean % damage 1 daa Stellaria media: 10%
  mean % damage 7 daa Stellaria media: 30%
  mean % damage 14 daa Stellaria media: 10%
Stellaria media [4]; adjuvant 2.5% w/v
  mean % damage 1 daa Stellaria media: 20%
  mean % damage 7 daa Stellaria media: 40%
  mean % damage 14 daa Stellaria media: 20%
Poa annua [5]; adjuvant 1% w/v
  mean % damage 1 daa Poa annua: 20%
  mean % damage 7 daa Poa annua: 30%
  mean % damage 14 daa Poa annua: 10%
Poa annua [5]; adjuvant 1.5% w/v
  mean % damage 1 daa Poa annua: 20%
  mean % damage 7 daa Poa annua: 40%
  mean % damage 14 daa Poa annua: 10%
Poa annua [5]; adjuvant 2% w/v
  mean % damage 1 daa Poa annua: 40%
  mean % damage 7 daa Poa annua: 50%
  mean % damage 14 daa Poa annua: 15%
Poa annua [5]; adjuvant 2.5% w/v
  mean % damage 1 daa Poa annua: 40%
  mean % damage 7 daa Poa annua: 50%
  mean % damage 14 daa Poa annua: 0%
Veronica persica; adjuvant 1% w/v
  mean % damage 1 daa Veronica persica: 10%
  mean % damage 7 daa Veronica persica: 10%
  mean % damage 14 daa Veronica persica: 5%
Veronica persica; adjuvant 1.5% w/v
  mean % damage 1 daa Veronica persica: 20%
  mean % damage 7 daa Veronica persica: 20%
  mean % damage 14 daa Veronica persica: 10%
Veronica persica; adjuvant 2% w/v
  mean % damage 1 daa Veronica persica: 70%
  mean % damage 7 daa Veronica persica: 70%
  mean % damage 14 daa Veronica persica: 50%
Veronica persica; adjuvant 2.5% w/v
  mean % damage 1 daa Veronica persica: 60%
  mean % damage 7 daa Veronica persica: 40%
  mean % damage 14 daa Veronica persica: 40%
Trifolium repens; adjuvant 1% w/v
  mean % damage 1 daa Trifolium repens: 40%
  mean % damage 7 daa Trifolium repens: 40%
  mean % damage 14 daa Trifolium repens: 0%
Trifolium repens; adjuvant 1.5% w/v
  mean % damage 1 daa Trifolium repens: 60%
  mean % damage 7 daa Trifolium repens: 50%
  mean % damage 14 daa Trifolium repens: 0%
Trifolium repens; adjuvant 2% w/v
  mean % damage 1 daa Trifolium repens: 70%
  mean % damage 7 daa Trifolium repens: 60%
  mean % damage 14 daa Trifolium repens: 0%
Trifolium repens; adjuvant 2.5% w/v
  mean % damage 1 daa Trifolium repens: 70%
  mean % damage 7 daa Trifolium repens: 60%
  mean % damage 14 daa Trifolium repens: 5%
[6]
  course of damage over time (recovery): the level of damage decreases from day 14 onwards
Stellaria media [7]; adjuvant 1.25% w/v
  avg % damage 1 DAA Stellaria media: 25%
  avg % damage 6 DAA Stellaria media: 35%
Stellaria media [7]; adjuvant 2.5% w/v
  avg % damage 1 DAA Stellaria media: 30%
  avg % damage 6 DAA Stellaria media: 40%
Stellaria media [7]; adjuvant 5% w/v
  avg % damage 1 DAA Stellaria media: 35%
  avg % damage 6 DAA Stellaria media: 65%
Stellaria media [7]; adjuvant 10% w/v
  avg % damage 1 DAA Stellaria media: 60%
  avg % damage 6 DAA Stellaria media: 85%
Taraxacum officinale; adjuvant 1.25% w/v
  avg % damage 1 DAA Taraxacum officinale: 5%
  avg % damage 6 DAA Taraxacum officinale: 20%
Taraxacum officinale; adjuvant 2.5% w/v
  avg % damage 1 DAA Taraxacum officinale: 10%
  avg % damage 6 DAA Taraxacum officinale: 20%
Taraxacum officinale; adjuvant 5% w/v
  avg % damage 1 DAA Taraxacum officinale: 30%
  avg % damage 6 DAA Taraxacum officinale: 40%
Taraxacum officinale; adjuvant 10% w/v
  avg % damage 1 DAA Taraxacum officinale: 45%
  avg % damage 6 DAA Taraxacum officinale: 35%
Poa annua [8]; adjuvant 1.25% w/v
  avg % damage 1 DAA Poa annua: 45%
  avg % damage 6 DAA Poa annua: 50%
Poa annua [8]; adjuvant 2.5% w/v
  avg % damage 1 DAA Poa annua: 55%
  avg % damage 6 DAA Poa annua: 70%
Poa annua [8]; adjuvant 5% w/v
  avg % damage 1 DAA Poa annua: 75%
  avg % damage 6 DAA Poa annua: 80%
Poa annua [8]; adjuvant 10% w/v
  avg % damage 1 DAA Poa annua: 70%
  avg % damage 6 DAA Poa annua: 80%
